Laboratory results taken from patent publication US20220143061A1, “3'3'-CYCLIC DINUCLEOTIDES AND PRODRUGS THEREOF” (INSTITUTE OF ORGANIC CHEMISTRY AND BIOCHEMISTRY ASCR, V.V.I., priority 2019, published 2022).
Where two headings read alike, the source gives them in different places.

Tests used:
WT STING = biological target: T1, WT STING (Homo sapiens, UniProt Q86WV6, H232R); assay: Differential Scanning Fluorimetry with WT STING; type: binding; conditions: thermal shift vs apoprotein; 150 μM CDN; truncated WT STING 0.1 mg/ml
T1 construct: 8xHis (N, cleaved yes); SUMO (N, cleaved yes); made in house
Description: (§1) Purified PCR products were cleaved with restriction enzymes BamHI (cat. #R0136S, NEB, Ipswich, USA) and NotI (cat. #R0189S, NEB, Ipswich, USA) and cloned into the pSUMO vector linearized with the identical enzymes.
(§2) DNase I (cat. #D5025, Sigma Aldrich, Czech Republic) and RNase A (cat. #R6513, Sigma Aldrich, Czech Republic) were added (final concentration 50 μg/ml) together with MgCl2 (final concentration 5 mmol·l^−1) to the homogenate and bacteria were lysed using French Press G-M™ High-Pressure Cell Press Homogenizer (1500 psi, 3 cycles). […] The resin was poured into a chromatography column, washed with 50 ml buffer A (50 mmol·l^−1 TrisCl (pH 8.0), 800 mmol·l^−1 NaCl, 3 mmol·l^−1 β-mercaptoethanol; 10% glycerol; 20 mmol·l^−1 imidazole) and 8-His-SUMO tagged STING proteins were eluted with 15 ml buffer A containing 300 mmol·l^−1 imidazole. […] Proteins were concentrated with Amicon® Ultra-15 10 K device (cat. #UFC901008, Merck Millipore, Billerica, USA) and flash frozen in liquid N2.
(§3) 20 μL solutions of the reaction mixtures were pipetted in triplicates into 96 well optical reaction plates and thermal denaturation of samples were performed on real time PCR cycler (LightCycler® 480 Instrument II—Roche, Basel, Switzerland). The first derivative of the thermal denaturation curves was performed to calculate denaturing temperatures of STING-CDN complexes and STING apoproteins. The thermal shift for each CDN was calculated by subtracting the average denaturing temperature of STING apoprotein from the average denaturing temperature of STING CDN complex.

AQ STING (G230A-R293Q) = biological target: T2, AQ STING (G230A-R293Q) (Homo sapiens, UniProt Q86WV6, G230A/H232R/R293Q); assay: Differential Scanning Fluorimetry with AQ STING; type: binding; conditions: thermal shift vs apoprotein; 150 μM CDN; truncated AQ STING 0.1 mg/ml
T2 construct: 8xHis (N, cleaved yes); SUMO (N, cleaved yes); made in house
Description: as §1, §2, §3

[1] = biological target: T3, human wild type STING (WT STING) (Homo sapiens, UniProt Q86WV6, H232R); assay: Digitonin assay using 293T wtSTING-FL reporter cells; type: cell-based; conditions: 293T wtSTING-FL cells, digitonin buffer 30 minutes, then 5 hours; ISRE firefly luciferase
T3 construct: host or cells: 293T cells (ATCC CRL-3216), stably double transfected with pUNO1-hSTING-WT and pGL64.27-4×ISRE
Source text: (§4) Two complementary oligonucleotides of the sequence […] […] […] […] […] The oligonucleotides were mixed in equal molar amounts, hybridized, and cleaved by restriction endonucleases HindIII (cat. #. R0104S, NEB, Ipswich, USA) and BglII (cat. #R0144S, NEB, Ipswich, USA). Ultimately, they were ligated into plasmid pGL4.27 (cat. #E6651, Promega, Madison, USA) linearized with the same enzymes. As result the sequence with four ISRE sites was placed upstream of the minimum promoter of firefly luciferase reporter gene.
(§5) After 5 minutes incubation at room temperature (RT), 250 μL of the mixture was added dropwise to the cells in one well. Cells were incubated 36 hours at 37° C. with 5% CO2, and then detached with 0.05% Trypsin and 0.22 g/L EDTA (both cat. #L0941, Biowest, Riverside, USA).
(§6) Transfected cells were seeded onto poly-D-lysine coated six well plates at density 50,000 cells per 1 cm^2 in DMEM medium with high glucose containing 10% heat inactivated FBS, 30 μg/mL blasticidin (cat. #ant-b1-05, InvivoGen, San Diego, USA), 0.06 mg/ml Penicillin G and 0.1 mg/ml Streptomycin Sulfate (both cat. #. L0018, Biowest, Riverside, USA). The medium was replenished every 3-4 days until visible colonies of cells resistant to blasticidin were formed.
(§7) Blasticidin resistant cells stably expressing WT STING were further transfected with pGL64.27-4×ISRE plasmid following the same procedure as described above. […] Homogeneous culture of stably double transfected cells was prepared by limiting dilution of cells in 96 well plates and wells with cells were selected that originated from a single cell.
The medium was removed next day and three fold serial dilutions of compounds in Digitonin buffer containing 50 mmol·l^−1 HEPES (cat. #H3375, Sigma Aldrich, Czech Republic) pH 7.0, 100 mmol·l^−1 KCl, 3 mmol·l^−1 MgCl2, 0.1 mmol·l^−1 DTT (cat. #D0632, Sigma Aldrich, Czech Republic), 85 mmol·l^−1 Sucrose (cat. #S7903, Sigma Aldrich, Czech Republic), 0.2% BSA (cat. #A2153, Sigma Aldrich, Czech Republic), 1 mmol·l^−1 ATP (cat. #A1852, Sigma Aldrich, Czech Republic), 0.1 mmol·l^−1 GTP (cat. #G8877, Sigma Aldrich, Czech Republic), and 10 μg/mL Digitonin A (cat. #D141, Sigma Aldrich, Czech Republic) were added to the cells. The buffer was removed after 30 minutes incubation at 37° C. with 5% C02, the cells were washed once with 100 μl of cultivation medium, and 100 μl of medium was added to each well. The plates with cells were incubated for 5 hours at 37° C. with 5% CO2, 50 μl of the medium was removed and 30 μl of ONE-Glo™ Luciferase Assay System reagent (cat. #E6120, Promega, Madison, USA) was added to each well. Luminesce was read on Synergy H1 (Biotek, Winooski, USA).

[2] = biological target: T3, human wild type STING (WT STING); assay: 293T WT STING standard reporter assay; type: cell-based; conditions: 293T wtSTING-FL cells, no digitonin, 7 hours; ISRE firefly luciferase; read-out: 293T WT STING EC50
Source text: as §4, §5, §6, §7
The medium was removed the next day and three-fold serial dilutions of compounds in 100 μl medium were added to the cells. The plates were incubated for 7 hours at 37° C. with 5% CO2. Next 50 μl of the medium was removed from wells, and 30 μl of ONE-Glo™ Luciferase Assay System reagent (cat. #E6120, Promega, Madison, USA) was added to each well. Luminescence was read on Synergy H1 (Biotek, Winooski, USA).

[3] = tested on: peripheral blood mononuclear cell (PBMC); assay: Peripheral blood mononuclear cell assay (cytokine levels); type: cell-based; conditions: 1 h with compound, wash, 15 hour incubation, average of one to four donors
Description: Selected compounds were tested in an in vitro peripheral blood mononuclear cell (PBMC) assay. […] Serially diluted tested compounds were added to wells in 50 μl of cultivation medium and cell were incubated with compounds for 1 h at 37° C. with 5% CO2. Plates with cells were then spun 500 g for 5 minutes and medium was removed. Cells were washed twice with the cell culture medium by the use of centrifugation and gently resuspended in 100 μl medium without compounds. After 15 hour incubation at 37° C. with 5% CO2, the cell culture medium was collected and the levels of interferon-alpha (INF-α), interferon-gamma (INF-γ) and tumor necrosis factor-alpha (TNF-α) were determined with ProcartaPlex Assays (ThermoFisher, Waltham, USA) and MAGPIX System (Merck KGaA, Darmstadt, Germany). […] Values reported are an average of runs from one to four donors.

T1 sequence (Q86WV6 140-343 H232R): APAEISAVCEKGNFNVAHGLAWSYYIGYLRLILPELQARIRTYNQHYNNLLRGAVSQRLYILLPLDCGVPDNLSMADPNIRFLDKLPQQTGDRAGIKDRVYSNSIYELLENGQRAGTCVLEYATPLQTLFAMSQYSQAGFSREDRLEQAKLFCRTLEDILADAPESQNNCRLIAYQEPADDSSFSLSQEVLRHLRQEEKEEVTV
T3 sequence (Q86WV6 whole entry H232R): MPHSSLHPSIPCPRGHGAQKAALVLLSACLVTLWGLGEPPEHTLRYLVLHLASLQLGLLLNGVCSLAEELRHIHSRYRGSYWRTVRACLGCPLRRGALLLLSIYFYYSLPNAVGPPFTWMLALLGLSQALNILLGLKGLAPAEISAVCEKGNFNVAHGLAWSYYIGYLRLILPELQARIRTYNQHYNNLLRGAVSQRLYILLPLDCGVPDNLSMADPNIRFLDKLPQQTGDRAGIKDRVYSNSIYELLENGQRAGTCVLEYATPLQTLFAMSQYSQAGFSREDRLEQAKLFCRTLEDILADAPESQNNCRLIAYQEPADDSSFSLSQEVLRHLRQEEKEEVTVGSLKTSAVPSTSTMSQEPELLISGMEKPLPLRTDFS
T2 sequence (Q86WV6 140-343 G230A/H232R/R293Q): as the sequence (Q86WV6 140-343 H232R) above, with G91A, R154Q counted along it

Compound	DSF ΔTm WT STING (WT STING) [°C]	DSF ΔTm AQ STING (AQ STING (G230A-R293Q)) [°C]	EC50 [1] [nM]	EC50 [2] [nM]	EC50 ([3]; read-out: PBMC EC50 IFN-α) [µM]	EC50 ([3]; read-out: PBMC EC50 IFN-γ) [µM]	EC50 ([3]; read-out: PBMC EC50 TNF-α) [µM]
Nc1ncnc2c1ncn2[C@@H]1O[C@@H]2COP(=O)(S)O[C@H]3[C@@H](F)[C@H](n4cnc5c(N)ncnc54)O[C@@H]3COP(=O)(O)CO[C@H]2[C@H]1F (single isomer, unassigned) [Compound 11a]	4.8	9.3	10	4500	400	130	90
Nc1ncnc2c1ncn2[C@@H]1O[C@@H]2COP(=O)(S)O[C@H]3[C@@H](F)[C@H](n4cnc5c(N)ncnc54)O[C@@H]3COP(=O)(O)CO[C@H]2[C@H]1F (single isomer, unassigned) [Compound 11b]	13.6	18.2	50	1400	123	> 125	118
Nc1ncnc2c1ncn2[C@@H]1O[C@@H]2COP(=O)(S)O[C@H]3[C@@H](F)[C@H](n4cnc5c(N)ncnc54)O[C@@H]3COP(=O)(S)CO[C@H]2[C@H]1F (single isomer, unassigned) [Compound 14b]	8.6	16.7	10	200	46	33	23
Nc1ncnc2c1ncn2[C@@H]1O[C@@H]2COP(=O)(S)O[C@H]3[C@@H](F)[C@H](n4cnc5c(N)ncnc54)O[C@@H]3COP(=O)(S)CO[C@H]2[C@H]1F (single isomer, unassigned) [Compound 14c]	8.2	17.6	7	300	68	44	51
Nc1ncnc2c1ncn2[C@@H]1O[C@@H]2COP(=O)(O)O[C@H]3[C@@H](F)[C@H](n4cnc5c(N)ncnc54)O[C@@H]3COP(=O)(O)CO[C@H]2[C@H]1F [Compound 21, (2R,3R,3aR,7aR,9R,10R,10aR,15aR)-2,9-bis(6-amino-9H-purin-9-yl)-3,10-difluoro-5,13-dihydroxydecahydro-2H-difuro[3,2-d:3′,2′-k][1,3,7,10]tetraoxa[2,8]diphosphacyclotridecine 5,13-dioxide]	9.4	16.1	10	3100	100	26	50
